Laboratory results as given in patent US20210177808A1, “INJECTABLE ISOXAZOLINE PHARMACEUTICAL COMPOSITIONS AND THEIR USE AGAINST PARASITE INFESTATION” (Intervet Inc., priority 2017, published 2021).

System: Ctenocephalides felis fleas
Test: Flea efficacy on dogs approximately 6 months after treatment (Example 4B)
Format: in vivo
Procedure: The results from additional dose characterization studies are summarized. These studies evaluated three doses (10, 15 and 20 mg/kg) in adult dogs. The injectable suspension formulations of fluralaner were prepared is indicated in Example 1J above. One study tested the effectiveness against Rhipicephalus sanguineus ticks (see Table 7). A second study evaluated efficacy against fleas at approximately 6 months after treatment was tested in dogs (see Table 8).

With `Cc1cc(C2=NOC(c3cc(Cl)cc(Cl)c3)(C(F)(F)F)C2)ccc1C(=O)NCC(=O)NCC(F)(F)F` (centres unmarked) [fluralaner, 4-[5-(3,5-Dichlorophenyl)-5-trifluoromethyl-4,5-dihydroisoxazol-3-yl]-2-methyl-N-[(2,2,2-trifluoro-ethylcarbamoyl)-methyl]-benzamide] as the compound, how does the “Effectiveness in reducing live fleas on dogs” value (all three doses (10, 15, 20 mg/kg), 6 months following treatment) read?
Its value is 100%.

What about the “Predicted duration of efficacy against fleas” value (predicted because fleas are more sensitive to fluralaner than ticks) of the same compound?
The value was 12 months.
